Results taken from US10513499B2, “Inhibitors of alpha-amino-beta-carboxymuconic acid semialdehyde decarboxylase” (TES Pharma S.r.l., priority 2014, dated 2019).
Entries after “also recorded” stand apart in the source; their conditions may differ.

Experiments:
HePG2 cells = test: Cytotoxicity in HePG2 cells (LDH release, ATP level); assay type: cell-based; conditions: 10 nM to 300 μM, 4 hrs
Experimental: (§1) HePG2 and AML-12 cells are seeded and a dose-response of the compound is performed at various concentrations. Cells are stimulated and the supernatant is used to perform LDH release as a measure of necrosis while the cells are lysed to detect ATP levels for determining cell viability.
(§2) Cytotoxicity: 20000 HePG2 and AML-12 cells were seeded in 96 well plate (Viewplate PerkinElmer). Dose-response of the compound in Table 2 was performed using HP D300 digital dispenser, ranging from 10 nM to 300 μM with constant DMSO 1% in medium. Cells were stimulated for 4 hrs at 37° C.; the supernatant was used to perform LDH release (Cytotox-one, Promega) as a measure of necrosis while the cells were lysed to detect ATP level for determining cell viability (Celltiter-glo, Promega) according to manufacturer's instructions.

ACMSD-1 = ACMSD-1 (Homo sapiens (Human), UniProt Q8TDX5); test: ACMSD-1 modulation in HEK293T cells transiently expressing ACMSD; assay type: cell-based; conditions: about 50 nM to about 5 uM; stimulated 48 hrs to 72 hrs
Sequence of ACMSD-1 (Q8TDX5 whole entry): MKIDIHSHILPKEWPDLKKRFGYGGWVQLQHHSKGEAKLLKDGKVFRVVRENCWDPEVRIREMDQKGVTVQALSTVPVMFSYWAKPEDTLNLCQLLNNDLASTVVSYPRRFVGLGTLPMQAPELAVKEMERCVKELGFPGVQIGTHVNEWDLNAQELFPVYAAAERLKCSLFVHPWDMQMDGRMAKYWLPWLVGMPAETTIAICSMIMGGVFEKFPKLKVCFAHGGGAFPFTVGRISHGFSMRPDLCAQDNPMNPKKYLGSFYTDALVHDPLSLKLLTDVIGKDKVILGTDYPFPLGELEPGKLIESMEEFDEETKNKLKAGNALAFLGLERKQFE
Experimental: HEK293T cells are seeded and transfected to transiently express ACMSD. The cells are then stimulated with different concentrations of Compound 1, and then lysed to measure the ACMSD activity in a spectrophotometrical in vitro assay. The amount of the whole protein content in cell lysates is detected by Bradford analysis and used to get the specificity activity of the enzyme normalized in all samples.
HEK293T cells (ATCC) were seeded in six-well plates and transfected using Fugene HD to express transiently ACMSD. 24 hrs post transfection, the cells were stimulated for 48 hrs to 72 hrs with different concentrations of Compound 1 and then lysed to measure the ACMSD activity, by measuring the conversion of 30H-Anthranilic Acid into product (i.e. α-amino-beta-carboxymuconate-ε-semialdehyde, ACMS) in a spectrophotometrical in vitro assay. The amount of the whole protein content in cell lysates was detected by Bradford analysis. This value was used to get the specificity activity of the enzyme normalized in all samples (mU/ml or ΔE/Δt/mg of total protein).
Having determined the optimum stimulation time and transfection protocol cells were stimulated with different concentrations of Compound 1 (about 50 nM to about 5 uM).

AML-12 cells [1] = test: Cytotoxicity in AML-12 cells (LDH release, ATP level); assay type: cell-based, mouse; conditions: 10 nM to 300 μM, 4 hrs
Experimental: as §1, §2

[2] = system: SOD2 activity in AML-12 cells; test: Modulation of SOD2 activity in AML-12 cells; assay type: cell-based, mouse; conditions: 24 hours
Experimental: Primary hepatocytes or AML-12 cells are lysed and total protein concentration is determined using the Bradford assay. SOD2 activity is determined at indicated times after treatment with a compound of Formula (I), Formula (Ia), Formula (Ib), Formula (II), or Formula (III), or a pharmaceutically acceptable salt thereof, using a SOD Assay Kit. Absorbance is determined and results are expressed in U/ml/mg of protein according to the standard curve and measured protein concentration. […]
(§3) Primary hepatocytes or AML-12 cells were then lysed in a 20 mM HEPES buffer (Gibco), pH 7.2, containing 1 mM EGTA (Sigma), 210 mM mannitol (Sigma), and 70 mM sucrose (AMRESCO). Total protein concentration was determined using the Bradford assay (BioRad). SOD-2 activity was determined at indicated times after ACMSD inhibitor treatment by the SOD Assay Kit (Cayman Chemical) according to the manufacturer's instructions. […] Absorbance was determined with a Victor X4 multi-label plate reader (Perkin-Elmer) at 450 nm. Results are expressed in U/ml/mg of protein according to the standard curve and measured protein concentration.

Hepa-1.6 cells = test: RT-qPCR analysis of SIRT1-regulated genes in Hepa-1.6 cells; assay type: cell-based; conditions: 24 hrs
Experimental: (§4) Cells (AML-12, Hepa-1.6, HEK-293, primary human and murine hepatocytes) are treated with different concentrations of a compound of Formula (I), Formula (Ia), Formula (Ib), Formula (II), or Formula (III), or a pharmaceutically acceptable salt thereof and the gene expression of ACMSD, Pgc1a, Sod1, and Sod2 (MnSOD) is determined using RT-qPCR. Total RNA is extracted from cells and the extracted RNA is treated with DNase and used for reverse transcription (RT).
(§5) Gene expression of ACMSD and genes known to be regulated by SIRT1, (an enzyme that is strictly NAD^+ dependent) such as Pgc1a, Sod1, Sod2 (MnSOD), were analysed in AML-12 cells, Hepa-1.6 cells and primary murine hepatocytes treated with Compound 1 or 17.
(§6) Cells (AML-12, Hepa-1.6, HEK-293, primary human and murine hepatocytes) were treated with different concentrations of Compound 1 or Compound 17. Total RNA was extracted from cells using TRIzol (Invitrogen) according to the manufacturer's instructions. The RNA was treated with DNase, and 2 μg of RNA was used for reverse transcription (RT). 50× diluted cDNA was used for RT-quantitative PCR (RT-qPCR) reactions. The RT-qPCR reactions were performed using the Light-Cycler system (Roche Applied Science) and a qPCR Supermix (QIAGEN) with the indicated primers. The average of at least three technical repeats was used for each biological data point.

[3] = system: FoxO1 phosphorylation at Ser256; test: FoxO1 phosphorylation levels in AML-12 cells (western blot); assay type: cell-based, mouse; conditions: 24 hours, increasing dose
Experimental: AML-12 cells are treated with different concentrations of a compound of Formula (I), Formula (Ia), Formula (Ib), Formula (II), or Formula (III), or a pharmaceutically acceptable salt thereof. Cells are then lysed, and analyzed by SDS-PAGE/western blot. Blocking and antibody incubations are then done and each protein present is detected with its specific antibody.
AML-12 cells were treated with different concentrations of Compound 1 or Compound 17 for 24 hours. Cells were then lysed in lysis buffer (50 mM Tris, 150 mM KCl, EDTA 1 mM, NP40 1%) containing protease and phosphatase inhibitors, and analyzed by SDS-PAGE/western blot. Blocking and antibody incubations were done in 5% milk. Each protein present was detected with its specific antibody. Tubulin antibody was obtained from Sigma Inc, FoxO1 and phopho-FoxO1 (Ser256) antibodies were obtained from Cell Signaling. Antibody detection reactions were developed by enhanced chemiluminescence (Advansta, Calif., USA) using x-ray films.

AML-12 cells [4] = test: RT-qPCR analysis of SIRT1-regulated genes in AML-12 cells; assay type: cell-based, mouse; conditions: 24 hrs
Experimental: as §4, §5, §6

[5] = system: SOD2 activity in primary murine hepatocytes; test: Modulation of SOD2 activity in murine primary hepatocytes; assay type: cell-based, mouse; conditions: for SOD2 activity: primary murine hepatocytes, 24 hours
Experimental: Primary hepatocytes or AML-12 cells are lysed and total protein concentration is determined using the Bradford assay. SOD2 activity is determined at indicated times after treatment with a compound of Formula (I), Formula (Ia), Formula (Ib), Formula (II), or Formula (III), or a pharmaceutically acceptable salt thereof, using a SOD Assay Kit. Absorbance is determined and results are expressed in U/ml/mg of protein according to the standard curve and measured protein concentration.
Primary hepatocytes were prepared from 8-12-week-old C57BL/6J mice by collagenase perfusion method. Mouse livers were perfused with Hank's balanced salt solution (HBSS, KCl, 5.4 mM; KH2PO4, 0.45 mM; NaCl, 138 mM; NaHCO3, 4.2 mM; Na2HPO4, 0.34 mM; glucose, 5.5 mM; […]; EGTA, 50 mM; CaCl2, 50 mM; pH 7.4). Livers were then washed at a rate of 5 ml/min through the portal vein. After washing, livers were perfused with collagenase (0.025%) solution. Cell viability was assessed by the trypan blue method. Isolated primary hepatocytes were plated with DMEM medium (Gibco) including 10% FCS, 10 units per ml penicillin and HEPES for buffering. The cells were maintained in culture at 37° C. in a humidified atmosphere of 5% CO2/95% air. After 6-8 hrs of attachment, this medium was replaced with media containing different concentrations of an ACMSD inhibitor (i.e., Compound 1 or Compound 17) or with the corresponding concentration of DMSO (as a control). […]
as §3

[6] = system: primary mouse hepatocytes; test: RT-qPCR analysis of SIRT1-regulated genes in primary mouse hepatocytes; assay type: cell-based; conditions: 24 hrs, 5 nM-500 nM range
Experimental: as §4, §5, §6

[7] = system: murine primary hepatocytes; test: NAD+ content in murine primary hepatocytes (HPLC, mass-spectrometry); assay type: cell-based, mouse; conditions: 5 nM, 10 nM and 50 nM for 24 hours
MDCK cells = test: Modulation of cisplatin-induced caspase 3/7 activity in MDCK cells; assay type: cell-based; conditions: for EC50: Canis lupus familiaris, MDCK
Experimental: MDCK cells are cultured in base medium to a final concentration of 10%. Cells are plated into 96 wells and 24 hours after cell plating the medium is changed with fresh medium supplemented with 1% FBS. Cisplatin is then used to induce cell injury. Different concentrations of Formula (I), Formula (Ia), Formula (Ib), Formula (II), or Formula (III), or a pharmaceutically acceptable salt thereof (in DMSO) are added in combination with cisplatin or prior to adding cisplatin. Caspase 3/7 activity (Promega) is determined according to standard procedures using a luminescent signal readout on a plate reader. Each experiment/condition is performed in triplicate. Caspase activity is analyzed as percentage effect normalized to the cisplatin alone and vehicle treated cells.
An in vitro study was performed to determine the effects of compounds of Formula (I), Formula (Ia), Formula (Ib), Formula (II), or Formula (III), or a pharmaceutically acceptable salt thereof, on Acute Kidney Injury in MDCK cells.
MDCK cells (MDCK (NBL-2) ATCC® CCL-34™) were cultured in base medium ATCC-formulated Eagle's Minimum Essential Medium, Catalog No. 30-2003 with fetal bovine serum (FBS) to a final concentration of 10%. 10,000 cells were plated into 96 wells and 24 hours after cell plating the medium was changed with fresh medium supplemented with 1% FBS. Cisplatin (50 μM for 16 hrs) was then used to induce cell injury. Different concentrations of Compound 18 (in 1% DMSO) were added in combination with cisplatin (FIG. 1) or 1 hour prior adding cisplatin (FIG. 2).
Caspase 3/7 activity (Promega) was determined according to standard procedures using a luminescent signal readout on a Victor V plate reader (PerkinElmer). Each experiment/condition was performed in triplicate.
Caspase activity was analyzed as percentage effect normalized to the cisplatin alone (100%) and vehicle treated cells as 0% of caspase activity. Data were analyzed by GraphPad Software. One-way analysis of variance (Dunnett's Multiple Comparison test) was used for statistical analyses.

[8] = system: human primary hepatocytes; test: NAD+ content in human primary hepatocytes by LCMS/MS; assay type: cell-based; conditions: tested at 0.5 μM and 5 μM; compound replaced every 24 hrs
Experimental: Primary hepatocytes are treated with different concentrations of a compound of Formula (I), Formula (Ia), Formula (Ib), Formula (II), or Formula (III), or a pharmaceutically acceptable salt thereof, or MEHP (control) after seeding. The compound is replaced every 24 hours, and then cells are directly harvested and lysed to detect NAD^+ content through LC MS/MS (liquid chromatography mass spectrometry/mass spectroscopy).
The NAD^+ concentration or content was determined in human primary hepatocytes treated with Compound 4. Vehicle (NT) was used as a control.
At least three experiments were run treating primary hepatocytes with different concentrations of Compound 4 (0.5 μM and 5 μM) after 48 hrs from seeding. Compound 4 was replaced every 24 hrs, and then cells were directly harvested and lysed with ACN/H2O (ratio 5:1). LCMS/MS was used to detect and measure NAD^+ concentration/content. […] (FIG. 1)
The NAD^+ concentration or content was determined in human primary hepatocytes treated with Compound 1 and MEHP, a known ACMSD inhibitor. MEHP was used as a control.
At least three experiments were run treating primary hepatocytes with different concentrations of Compound 1 (0.5 μM, 5 μM, and 50 μM) after 48 hrs from seeding. Compound 1 was replaced every 24 hrs, and then cells were directly harvested and lysed with ACN/H2O (ratio 5:1). […]

In the case of `N#Cc1c(-c2ccccc2)nc(SCc2cccc(C(=O)O)c2)[nH]c1=O` [Compound 1], the “Cytotoxicity Hep-G2” value (HePG2 cells) is reported as “Not Toxic”, the “ACMSD-1 activity in over-expression cell-based assay” value (ACMSD-1) is reported as “inhibited ACMSD-1 activity, in a dose dependent manner” and the “Cytotoxicity AML-12” value (AML-12 cells [1]) is reported as “Not Toxic”. The SOD2 activity [2] was “induced in a dose-dependent manner”, the “Sod2 mRNA levels” value (Hepa-1.6 cells) was “increased in a dose-dependent manner” and the “FoxO1 phosphorylation at Ser256” value [3] was “decrease”. For the same compound, the “Sod2 mRNA levels” value (AML-12 cells [4]) was “increased in a dose-dependent manner” and the SOD2 activity [5] was “induced in a dose-dependent manner”.
In the case of `N#Cc1c(-c2cccs2)nc(SCc2cccc(-c3nn[nH]n3)c2)[nH]c1=O` [Compound 17], the “Cytotoxicity Hep-G2” value (HePG2 cells) is reported as “Not Toxic”, the “Cytotoxicity AML-12” value (AML-12 cells [1]) is reported as “Not Toxic” and the “Pgc1a mRNA expression level” value [6] is reported as “dose-dependent increase”. For the same compound, the “Sod2 (MnSOD) mRNA expression level” value [6] was “dose-dependent increase”, the SOD2 activity [2] was “induced in a dose-dependent manner” and the “FoxO1 phosphorylation at Ser256” value [3] was “decrease”. The “dose at which effect on SOD2 activity reached a maximum” value ([5]; primary hepatocytes) was “about 50 nM”, the SOD2 activity [5] was “induced in a dose-dependent manner” and the “intra-cellular NAD+ levels” value [7] was “significant and dose-dependent increase; also recorded: increase in NAD^+ levels”.
In the case of `N#Cc1c(-c2nccs2)nc(SCc2cccc(C(=O)O)c2)[nH]c1=O` [Compound 5], the “Cytotoxicity Hep-G2” value (HePG2 cells) is reported as “Not Toxic” and the “Cytotoxicity AML-12” value (AML-12 cells [1]) is reported as “Not Toxic”.
`N#Cc1c(-c2cccs2)nc(SCc2cccc(-c3noc(=O)[nH]3)c2)[nH]c1=O` [Compound 19] was tested, and the “Cytotoxicity Hep-G2” value (HePG2 cells) was “Not Toxic” and the “Cytotoxicity AML-12” value (AML-12 cells [1]) was “Not Toxic”.
`N#Cc1c(-c2ccc(Cl)cc2)nc(SCc2ccc(C(=O)O)cc2)[nH]c1=O` [Compound 8] was tested, and the “Cytotoxicity Hep-G2” value (HePG2 cells) was “Not Toxic” and the “Cytotoxicity AML-12” value (AML-12 cells [1]) was “Not Toxic”.
With `N#Cc1c(-c2cccs2)nc(SCc2cccc(CC(=O)O)c2)[nH]c1=O` [Compound 18] the EC50 (MDCK cells; 1 h, added one hour prior to cisplatin, 1 μM to 125 μM) was 30 µM, the EC50 (MDCK cells; added in combination with cisplatin, 0.01 μM to 100 μM) was 70 µM and the “activity of caspase 3/7 induced by cisplatin” value (MDCK cells; MDCK cells, cisplatin 50 μM for 16 hrs) was “decreases, in significant manner”.
In the case of `O=C(O)c1cccc(CSc2nc(-c3ccccc3)c(Br)c(=O)[nH]2)c1` [Compound 11], the “Cytotoxicity Hep-G2” value (HePG2 cells) is reported as “Not Toxic” and the “Cytotoxicity AML-12” value (AML-12 cells [1]) is reported as “Not Toxic”.
For `N#Cc1c(-c2cccs2)nc(SCc2cccc(C(=O)O)c2)[nH]c1=O` [Compound 4], the “Cytotoxicity Hep-G2” value (HePG2 cells) was “Not Toxic”, the “Cytotoxicity AML-12” value (AML-12 cells [1]) was “Not Toxic” and the “concentration at which ACMSD-1 enzyme is inhibited (NAD+ content, FIG. 1)” value [8] was at most 0.5 µM.
